Reference: US20250230193A1, “CYCLIC COMPOUND HAVING SELECTIVE KRAS INHIBITORY EFFECT ON HRAS AND NRAS” (CHUGAI SEIYAKU KABUSHIKI KAISHA, priority 2022, published 2025)
Where a SMILES comes first, the peptide text is derived from it. Bridges are numbered along the chain shown (N, C = ends). [ ]: non-standard residue; d: D form. The star is where a group is joined. hPhe(3-Cl-4-CF3) = N[C@@H](CCc1ccc(C(F)(F)F)c(Cl)c1)C(=O)O; NPrPhe(4-CF3) = CCCN[C@@H](Cc1ccc(C(F)(F)F)cc1)C(=O)O; NMeGly(cPent) = CN[C@H](C(=O)O)C1CCCC1; NMeD = CN[C@@H](CC(=O)O)C(=O)O; hPip = O=C(O)[C@@H]1CCCCCN1; Morpholide = C1CN(*)CCO1; Ac5c = NC1(C(=O)O)CCCC1; Aze = O=C(O)[C@@H]1CCN1; Sar = CNCC(=O)O

How the values were obtained:
[1] = biological target: GDP-bound HRAS wild-type protein (Homo sapiens, UniProt P01112); experiment: Binding to HRAS by surface plasmon resonance (SPR), Single Cycle Kinetics; details: for HRAS/KRAS (ratio of KD value with respect to GDP-bound HRAS wild-type protein to KD value with respect to KRAS): class symbols
GDP-bound HRAS wild-type protein, sequence (P01112 whole entry): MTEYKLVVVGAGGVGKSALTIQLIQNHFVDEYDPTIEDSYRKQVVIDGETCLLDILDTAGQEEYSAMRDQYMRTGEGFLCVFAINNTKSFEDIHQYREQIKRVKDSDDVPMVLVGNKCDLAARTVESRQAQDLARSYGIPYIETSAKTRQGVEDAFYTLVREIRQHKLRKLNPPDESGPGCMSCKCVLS

[2] = biological target: GDP-bound NRAS wild-type protein (Homo sapiens, UniProt P01111); experiment: Binding to NRAS by surface plasmon resonance (SPR), Single Cycle Kinetics; details: for NRAS/KRAS (ratio of KD value with respect to GDP-bound NRAS wild-type protein to KD value with respect to KRAS): class symbols
GDP-bound NRAS wild-type protein, sequence (P01111 whole entry): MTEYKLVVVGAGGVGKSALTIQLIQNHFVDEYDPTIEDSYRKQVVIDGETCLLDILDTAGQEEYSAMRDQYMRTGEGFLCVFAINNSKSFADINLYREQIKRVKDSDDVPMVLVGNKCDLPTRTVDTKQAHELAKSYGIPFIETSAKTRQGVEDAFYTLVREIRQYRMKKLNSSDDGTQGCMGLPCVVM

[3] = KD ratio, GDP-bound HRAS wild-type vs GDP-bound KRAS wild-type, SPR
[4] = KD ratio, GDP-bound NRAS wild-type vs GDP-bound KRAS wild-type, SPR

Question: How did the “HRAS/KRAS (ratio of KD value with respect to GDP-bound HRAS wild-type protein to KD value with respect to KRAS)” value ([1]; KD ratio HRAS/KRAS) turn out when `CCC[C@H]1C(=O)N[C@@H]([C@@H](C)CC)C(=O)N(C)CC(=O)N(C)[C@H]2C/C=C\CCN(C2=O)[C@@H](Cc2ccc(C(F)(F)F)cc2)C(=O)N(C)CC(=O)N[C@@H](CCc2ccc(C(F)(F)F)c(Cl)c2)C(=O)N2CCCC[C@H]2C(=O)NC2(CC(C)(C)C2)C(=O)N(C)[C@@H](C(CC)CC)C(=O)N(C)[C@H](C(=O)N(C)C)CC(=O)N1C` [PP2928] was run?
Answer: A (a compound having 10 or more and less than 20 is denoted as A)

Question: And the “NRAS/KRAS (ratio of KD value with respect to GDP-bound NRAS wild-type protein to KD value with respect to KRAS)” value ([2]; KD ratio NRAS/KRAS)?
Answer: AA (a compound having 20 or more is denoted as AA)

Question: Which “HRAS/KRAS (ratio of KD value for HRAS to KD value for KRAS)” value [1, 3] does the source give for `CCO[C@@H]1C[C@H]2C(=O)NC3(CCC3)C(=O)N(C)[C@@H](C3CCCC3)C(=O)N(C)[C@H](C(=O)N(C)CC)CC(=O)N(C)[C@@H](C3CCC3)C(=O)N[C@@H]([C@@H](C)CC)C(=O)N(C)CC(=O)N(C)[C@H]3C/C=C\CCN(C3=O)[C@@H](Cc3ccc(C(F)(F)F)cc3)C(=O)N(C)CC(=O)N[C@@H](CCc3ccc(C(F)(F)F)c(OC)c3)C(=O)N2C1` [PP2022] here?
Answer: A (a compound having 10 or more and less than 20 is denoted as A)

Question: And the “NRAS/KRAS (ratio of KD value for NRAS to KD value for KRAS)” value [2, 4]?
Answer: A (a compound having 10 or more and less than 20 is denoted as A)

Question: For `CCCN1C(=O)CN(C)C(=O)[C@@H]2CCN2C(=O)[C@H]([C@@H](C)CC)NC(=O)[C@@H]2CCCCCN2C(=O)C[C@@H](C(=O)N2CCOCC2)N(C)C(=O)[C@H](C2CCCC2)N(C)C(=O)C2(CCCC2)NC(=O)[C@@H]2CCCN2C(=O)[C@H](CCc2ccc(C(F)(F)F)c(Cl)c2)NC(=O)CN(C)C(=O)[C@@H]1Cc1ccc(C(F)(F)F)cc1` [PP0302] ([hPip]I[Aze][Sar][NPrPhe(4-CF3)][Sar][hPhe(3-Cl-4-CF3)]P[Ac5c][NMeGly(cPent)][NMeD]-Morpholide; lactam N-11), which “HRAS/KRAS (ratio of KD for GDP-bound HRAS wild-type to KD for KRAS)” value ([1]; KD ratio HRAS/KRAS, SPR) is on record?
Answer: C (A compound having a KD ratio of 0.1 or more and less than 3 is denoted as C)

Question: And the “NRAS/KRAS (ratio of KD for GDP-bound NRAS wild-type to KD for KRAS)” value ([2]; KD ratio NRAS/KRAS, SPR)?
Answer: B (a compound having 3 or more and less than 10 is denoted as B)

Question: Which “HRAS/KRAS (ratio of KD value with respect to GDP-bound HRAS wild-type protein to KD value with respect to KRAS)” value ([1]; KD ratio HRAS/KRAS) does the source give for `CCC[C@H]1C(=O)N[C@@H]([C@@H](C)CC)C(=O)N(C2CC2)CC(=O)N(C)[C@H]2C/C=C\CCN(C2=O)[C@@H](Cc2ccc(C(F)F)cc2)C(=O)N(C)CC(=O)N[C@@H](CCc2cc(F)c(C(F)(F)F)c(F)c2)C(=O)N2C[C@H](OC(C)C)C[C@H]2C(=O)NC2(CC(C)(C)C2)C(=O)N(C)[C@@H](C(CC)CC)C(=O)N(C)[C@H](C(=O)N(C)C)CC(=O)N1C` [PP2529] here?
Answer: A (a compound having 10 or more and less than 20 is denoted as A)

Question: And the “NRAS/KRAS (ratio of KD value with respect to GDP-bound NRAS wild-type protein to KD value with respect to KRAS)” value ([2]; KD ratio NRAS/KRAS)?
Answer: AA (a compound having 20 or more is denoted as AA)

Question: Which “HRAS/KRAS (ratio of KD value with respect to GDP-bound HRAS wild-type protein to KD value with respect to KRAS)” value ([1]; KD ratio HRAS/KRAS) does the source give for `CCC(CC)[C@H]1C(=O)N(C)[C@H](C(=O)N(C)C)CC(=O)N(C)[C@@H](COC)C(=O)N[C@@H]([C@@H](C)CC)C(=O)N(C)CC(=O)N(C)[C@H]2C/C=C\CCN(C2=O)[C@@H](Cc2ccc(C(F)(F)F)cc2)C(=O)N(C)CC(=O)N[C@@H](CCc2cc(F)c(C(F)(F)F)c(F)c2)C(=O)N2CCCC[C@H]2C(=O)NC2(CC(C)(C)C2)C(=O)N1C` [PP2916] here?
Answer: A (a compound having 10 or more and less than 20 is denoted as A)

Question: And the “NRAS/KRAS (ratio of KD value with respect to GDP-bound NRAS wild-type protein to KD value with respect to KRAS)” value ([2]; KD ratio NRAS/KRAS)?
Answer: A (a compound having 10 or more and less than 20 is denoted as A)

Question: What does the source list for `CCO[C@@H]1C[C@H]2C(=O)NC3(CCC3)C(=O)N(C)[C@@H](C3CCCC3)C(=O)N(C)[C@H](C(=O)N(C)C)CC(=O)N(C)[C@@H](CC3CCCC3)C(=O)N[C@@H]([C@@H](C)CC)C(=O)N(C)CC(=O)N(C)[C@H]3C/C=C\CCN(C3=O)[C@@H](Cc3ccc(C(F)(F)F)cc3)C(=O)N(C)CC(=O)N[C@@H](CCc3cc(F)c(C(F)(F)F)c(F)c3)C(=O)N2C1` [PP1112]?
Answer: HRAS/KRAS (ratio of KD value with respect to HRAS to KD value with respect to KRAS) [1, 3]: B (a compound having 3 or more and less than 10 is denoted as B); NRAS/KRAS (ratio of KD value with respect to NRAS to KD value with respect to KRAS) [2, 4]: A (a compound having 10 or more and less than 20 is denoted as A)

Question: What does the source list for `CCO[C@@H]1C[C@H]2C(=O)NC3(CCC3)C(=O)N(C)[C@@H](C3CCCC3)C(=O)N(C)[C@H](C(=O)N3CCOCC3)CC(=O)N(CC)[C@@H](CC(C)C)C(=O)N[C@@H]([C@@H](C)CC)C(=O)N(C)CC(=O)N(C)[C@H]3C[C@@H](C)CCN(C3=O)[C@@H](Cc3ccc(C(F)(F)F)cc3)C(=O)N(C)CC(=O)N[C@@H](CCc3cc(F)c(C(F)(F)F)c(F)c3)C(=O)N2C1` [PP1030]?
Answer: HRAS/KRAS (ratio of KD value with respect to HRAS to KD value with respect to KRAS) [1, 3]: B (a compound having 3 or more and less than 10 is denoted as B); NRAS/KRAS (ratio of KD value with respect to NRAS to KD value with respect to KRAS) [2, 4]: B (a compound having 3 or more and less than 10 is denoted as B)
